# Measured values reported in US11883450B1, “Extract of Agathis robusta as antifungal agent” (KING FAISAL UNIVERSITY, priority 2023, dated 2024).
# Experiments:
# [1] = tested on: Fungi stains; experiment: Minimum fungicidal concentration (MFC), positive control, strain not stated; type: cell-based
# Experimental: Minimum fungicidal concentration (MFC) was determined according to Zinsou et al., “Development of new dermatological formulations for the treatment of cutaneous candidiasis”, Scientific African (2020), 8:e00342. Different final concentrations (0.1 to 1 mg/mL) of the bark essential oils were dissolved in DEMO and added to liquid Sabouraud dextrose broth. From the above fungal stain suspension, 1 mL was added to each essential oil tube. The tubes were incubated at room temperature for three days. Negative and positive controls were made through the addition of an equivalent amount of DMSO and Ketoconazole, respectively. MFC was calculated through the determination of the lowest concentration of the essential oil, which could inhibit the growth of the fungus. Every concentration was repeated 5 times in three different experiments, and the mean and SD of inhibition zones were calculated for each fungal strain. The MIC was determined as the lowest concentration of essential oil that inhibited fungal growth after 48 h.
# [2] = tested on: C. albicans; experiment: In vivo topical fungal infection of burn wounds in Wistar rats; conditions: for percentage of fungicidal activity (wound fungal load): FIG. 5
# Experimental: The development of in vivo topical fungal infection was determined according to Zinsou, A. et al., “Development of new dermatological formulations for the treatment of cutaneous candidiasis”, Scientific African (2020):8:e00342, and modified Ray and Wuepper, “Experimental Cutaneous Candidiasis in Rodents: II. Role of the Stratum Corneum Barrier and Serum Complement as a Mediator of a Protective Inflammatory Response”, Archives of Dermatology (1978), Vol. 114(4): 539-43. The experimental protocol was permitted by the Institutional Animal Care and Use Committee of King Faisal University (KFU-REC-2023-JAN-EA000691). All the experiments were executed in harmony with the relevant procedures and regulations of the Ethical Conduct for the Use of Animals in Research at King Faisal University. Wistar rats weighing (220±30 g) were used for the whole experiment. The animals' backs were shaved after anesthesia, and sterilized with 70% ethyl alcohol in water and left to dry. The injury was induced on the shaven back of each rat using a hot copper metal rod. The injury was swabbed with 0.5 mL broth containing […] Colony-Forming Units (CFU) of C. albicans. The essential oil topical preparations were applied once daily, starting from day 3, directly on the infected wound until the wound was completely healed (nearly 20 days). No antibiotic or antifungal preparations were administered to any of the animal groups, and the animals were monitored daily for any wound contamination. The animals' wounds were covered by sterile wound plaster, which is changed every day. […]
# The animals' infected wounds (lesions) were monitored according to Masoko, et al., “In vivo antifungal effect of Combretum and Terminalia species extracts on cutaneous wound healing in immunosuppressed rats”, Pharm Biol (2010): 48:6:621-32, and Sullivan, et al., “Assessment of wound bioburden development in a rat acute wound model: Quantitative swab versus tissue biopsy”, Wounds (2004): 16: 115-123, using the following parameters: (1) Presence and type of exudate, erythema, swelling, ulceration, and crust formation: The scoring of the lesions regarding the exudate was measured using the following criteria: 0: No exudate, 1: Exudate just visible, 2: Exudate easily visible, 3: Substantial quantity of exudate, 4: Large quantity of exudate; (2) Wound contraction percentage: The lesion diameters were determined in millimeters (mm) vertically and horizontally. The lesion size percentage was calculated using the below equation: Wound contraction percentage=((Wound area day 0-Wound area day X)/Wound area day 0)×100, where X represents the number of days;
# (3) Epithelialization time: The number of days needed for the wound Escher to fade away, leaving no visible wound, was used to determine the epithelialization period. (4) Evaluation of wound fungal load was determined according to Sullivan et al., supra: At the 3rd, 10th, and 15 days, each lesion was gently swabbed by a sterile swab 3 times anticlockwise with mild pressure. […] The plates were incubated for 48 hours at 37° C., and the number of yeasts on each plate was manually counted. […]
smiles,measurement,setting,value
CC(=O)N1CCN(c2ccc(OCC3COC(Cn4ccnc4)(c4ccc(Cl)cc4Cl)O3)cc2)CC1 (stereo not drawn) [Ketoconazole],MFC,[1],0.037 µg/mL
same,reduction of wound exudate related to the non-treatment lesions,"[2]; AUC of exudate score, FIG. 2B, topical once daily from day 3",58%
same,reduction of epithelization time related to the untreated infected wound,[2]; FIG. 4,42%
same,wound contraction percentage,"[2]; by day 21, FIG. 3",100%
same,percentage of fungicidal activity (wound fungal load),"[2]; day 5, related to the untreated-infected wound",45.85%
same,percentage of fungicidal activity (wound fungal load),"[2]; day 15, related to the untreated-infected wound",98.58%
